Measured values: patent US10246456B2, “IRAK4 inhibiting agents” (BIOGEN MA INC., priority 2014, dated 2019)

Biological target: IRAK4 (Homo sapiens (Human), UniProt Q9NWZ3)
Assay: IRAK-4 AlphaScreen biochemical kinase assay
Settings: 1 nM IRAK4, 1 mM ATP, 3.5 h at RT
Method: The biochemical assay is in a AlphaScreen format. The kinase reaction is based on the IRAK-4 phosphorylation of a biotin labeled peptide. The phosphopeptide is incubated with anti-phosphothreonine antibody as well as streptavidin- and protein A-coated beads. Binding of the protein-A coated beads to the antibody and the streptavidin beads to the peptide, leads to an energy transfer from one bead to the other, ultimately producing a luminescent/fluorescent signal.

Chain of IRAK4 (Q9NWZ3 whole entry, species assumed): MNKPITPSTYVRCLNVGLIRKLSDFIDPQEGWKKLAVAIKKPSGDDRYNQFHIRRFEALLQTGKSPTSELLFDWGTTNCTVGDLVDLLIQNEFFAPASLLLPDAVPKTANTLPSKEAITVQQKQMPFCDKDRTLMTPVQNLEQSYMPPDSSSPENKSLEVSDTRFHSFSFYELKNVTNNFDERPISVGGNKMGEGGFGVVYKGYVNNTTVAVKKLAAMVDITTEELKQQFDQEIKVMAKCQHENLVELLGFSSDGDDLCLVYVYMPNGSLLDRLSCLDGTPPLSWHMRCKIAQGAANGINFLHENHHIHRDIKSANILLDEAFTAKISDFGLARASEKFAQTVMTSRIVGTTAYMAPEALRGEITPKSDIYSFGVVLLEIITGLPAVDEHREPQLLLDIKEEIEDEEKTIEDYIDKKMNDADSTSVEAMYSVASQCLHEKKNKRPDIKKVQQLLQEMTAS

SMILES | IC50
N#Cc1cccc(-n2ncc3ccc(-c4cccc(CN)n4)cc32)n1 [Example 46, 6-(6-(6-(aminomethyl)pyridin-2-yl)-1H-indazol-1-yl)picolinonitrile] | 100 to 1000 nM
NCc1cccc(-c2ccc3cnn(-c4cccc(C(N)=O)n4)c3c2)n1 [Example 47, 6-(6-(6-(aminomethyl)pyridin-2-yl)-1H-indazol-1-yl)picolinamide] | < 100 nM
NCc1cccc(-c2ccc3cnn(-c4cccc(C(F)(F)F)n4)c3c2)n1 [Example 48, (6-(1-(6-(trifluoromethyl)pyridin-2-yl)-1H-indazol-6-yl)pyridin-2-yl)methanamine] | < 100 nM
NC(=O)c1cc(-c2cncc(N)c2)cc2c1cnn2-c1cccc(C(F)(F)F)n1 [Example 52, 6-(5-aminopyridin-3-yl)-1-(6-(trifluoromethyl)pyridin-2-yl)-1H-indazole-4-carboxamide] | < 100 nM
CN(C)C(=O)c1cc(-c2cncc(N)c2)cc2c1cnn2-c1cccc(C(F)(F)F)n1 [Example 60, 6-(5-aminopyridin-3-yl)-N,N-dimethyl-1-(6-(trifluoromethyl)pyridin-2-yl)-1H-indazole-4-carboxamide] | 1000 to 10000 nM
CNC(=O)c1cc(-c2cncc(N)c2)cc2c1cnn2-c1cccc(C(F)(F)F)n1 [Example 61, 6-(5-aminopyridin-3-yl)-N-methyl-1-(6-(trifluoromethyl)pyridin-2-yl)-1H-indazole-4-carboxamide] | < 100 nM
NC1CCc2ccc(-c3ccc4cnn(-c5cccc(C(F)(F)F)n5)c4c3)nc21 (stereo not shown) [Example 62, 2-(1-(6-(trifluoromethyl)pyridin-2-yl)-1H-indazol-6-yl)-6,7-dihydro-5H-cyclopenta[b]pyridin-7-amine] | 1000 to 10000 nM
Nc1cncc(-c2ccc3cnn(-c4cccc(C(=O)NCCO)n4)c3c2)c1 [Example 65, 6-(6-(5-aminopyridin-3-yl)-1H-indazol-1-yl)-N-(2-hydroxyethyl)picolinamide] | 100 to 1000 nM
Nc1cncc(-c2ccc3cnn(-c4cccc(C(=O)NCCCO)n4)c3c2)c1 [Example 66, 6-(6-(5-aminopyridin-3-yl)-1H-indazol-1-yl)-N-(3-hydroxypropyl)picolinamide] | 100 to 1000 nM
CC(O)CNC(=O)c1cccc(-n2ncc3ccc(-c4cncc(N)c4)cc32)n1 (stereo not shown) [Example 67, 6-(6-(5-aminopyridin-3-yl)-1H-indazol-1-yl)-N-(2-hydroxypropyl)picolinamide] | 1000 to 10000 nM
Nc1cncc(-c2ccc3cnn(-c4cccc(C(=O)N5CC(O)C5)n4)c3c2)c1 [Example 68, (6-(6-(5-aminopyridin-3-yl)-1H-indazol-1-yl)pyridin-2-yl)(3-hydroxyazetidin-1-yl)methanone] | 100 to 1000 nM
CN(C)CCNC(=O)c1cccc(-n2ncc3ccc(-c4cncc(N)c4)cc32)n1 [Example 69, 6-(6-(5-aminopyridin-3-yl)-1H-indazol-1-yl)-N-(2-(dimethylamino)ethyl)picolinamide] | 1000 to 10000 nM
N#CCCNC(=O)c1cccc(-n2ncc3ccc(-c4cncc(N)c4)cc32)n1 [Example 70, 6-(6-(5-aminopyridin-3-yl)-1H-indazol-1-yl)-N-(2-cyanoethyl)picolinamide] | 1000 to 10000 nM
NCCNC(=O)c1cccc(-n2ncc3ccc(-c4cncc(N)c4)cc32)n1 [Example 72, N-(2-aminoethyl)-6-(6-(5-aminopyridin-3-yl)-1H-indazol-1-yl)picolinamide] | < 100 nM
N#CCNC(=O)c1cccc(-n2ncc3ccc(-c4cncc(N)c4)cc32)n1 [Example 73, 6-(6-(5-aminopyridin-3-yl)-1H-indazol-1-yl)-N-(cyanomethyl)picolinamide] | 1000 to 10000 nM
CS(=O)(=O)CCNC(=O)c1cccc(-n2ncc3ccc(-c4cncc(N)c4)cc32)n1 [Example 74, 6-(6-(5-aminopyridin-3-yl)-1H-indazol-1-yl)-N-(2-(methylsulfonyl)ethyl)picolinamide] | 1000 to 10000 nM
NC(=O)c1cccc(-c2ncc3ccc(-c4cncc(N)c4)cn23)n1 [Example 77, 6-(6-(5-aminopyridin-3-yl)imidazo[1,5-a]pyridin-3-yl)picolinamide] | 100 to 1000 nM
N#CCc1cccc(-n2ncc3ccc(-c4cncc(N)c4)cc32)n1 [Example 81, 2-(6-(6-(5-aminopyridin-3-yl)-1H-indazol-1-yl)pyridin-2-yl)acetonitrile] | 100 to 1000 nM
Nc1cncc(-c2ccc3cnn(-c4cccc(CC(=O)O)n4)c3c2)c1 [Example 82, 2-(6-(6-(5-aminopyridin-3-yl)-1H-indazol-1-yl)pyridin-2-yl)acetic acid] | 1000 to 10000 nM
N#CCNC(=O)c1cc(-c2ccc3cnn(-c4cccc(C(F)(F)F)n4)c3c2)cc(N)n1 [Example 87, 6-amino-N-(cyanomethyl)-4-(1-(6-(trifluoromethyl)pyridin-2-yl)-1H-indazol-6-yl)picolinamide] | 100 to 1000 nM

The remaining lines, values ahead:

IC50 | SMILES
< 100 nM | COC(=O)c1cc(-c2cncc(N)c2)cc2c1cnn2-c1cccc(C#N)n1 [Example 49, methyl 6-(5-aminopyridin-3-yl)-1-(6-cyanopyridin-2-yl)-1H-indazole-4-carboxylate]
< 100 nM | COC(=O)c1cc(-c2cncc(N)c2)cc2c1cnn2-c1cccc(C(F)(F)F)n1 [Example 50, methyl 6-(5-aminopyridin-3-yl)-1-(6-(trifluoromethyl)pyridin-2-yl)-1H-indazole-4-carboxylate]
< 100 nM | Nc1cncc(-c2cc(C(=O)O)c3cnn(-c4cccc(C(F)(F)F)n4)c3c2)c1 [Example 51, 6-(5-aminopyridin-3-yl)-1-(6-(trifluoromethyl)pyridin-2-yl)-1H-indazole-4-carboxylic acid]
100 to 1000 nM | NCc1cc(-c2cncc(N)c2)cc2c1cnn2-c1cccc(C(F)(F)F)n1 [Example 53, 5-(4-(aminomethyl)-1-(6-(trifluoromethyl)pyridin-2-yl)-1H-indazol-6-yl)pyridin-3-amine]
< 100 nM | Nc1cncc(-c2cc(CO)c3cnn(-c4cccc(C(F)(F)F)n4)c3c2)c1 [Example 54, (6-(5-aminopyridin-3-yl)-1-(6-(trifluoromethyl)pyridin-2-yl)-1H-indazol-4-yl)methanol]
< 100 nM | Cc1cccc(-n2ncc3ccc(-c4cccc(C(C)N)n4)cc32)n1 (stereo not shown) [Example 55, 1-(6-(1-(6-methylpyridin-2-yl)-1H-indazol-6-yl)pyridin-2-yl)ethanamine]
< 100 nM | COC(=O)c1cc(-c2cccc(C(C)N)n2)cc2c1cnn2-c1cccc(C(F)(F)F)n1 (stereo not shown) [Example 56, methyl 6-(6-(1-aminoethyl)pyridin-2-yl)-1-(6-(trifluoromethyl)pyridin-2-yl)-1H-indazole-4-carboxylate]
< 100 nM | CC(N)c1cccc(-c2cc(CO)c3cnn(-c4cccc(C(F)(F)F)n4)c3c2)n1 (stereo not shown) [Example 57, (6-(6-(1-aminoethyl)pyridin-2-yl)-1-(6-(trifluoromethyl)pyridin-2-yl)-1H-indazol-4-yl)methanol]
100 to 1000 nM | CC(N)c1cccc(-c2cc(C(=O)N(C)C)c3cnn(-c4cccc(C(F)(F)F)n4)c3c2)n1 (stereo not shown) [Example 58, 6-(6-(1-aminoethyl)pyridin-2-yl)-N,N-dimethyl-1-(6-(trifluoromethyl)pyridin-2-yl)-1H-indazole-4-carboxamide]
< 100 nM | CNC(=O)c1cc(-c2cccc(C(C)N)n2)cc2c1cnn2-c1cccc(C(F)(F)F)n1 (stereo not shown) [Example 59, 6-(6-(1-aminoethyl)pyridin-2-yl)-N-methyl-1-(6-(trifluoromethyl)pyridin-2-yl)-1H-indazole-4-carboxamide]
< 100 nM | NC1CCCc2ccc(-c3ccc4cnn(-c5cccc(C(F)(F)F)n5)c4c3)nc21 (stereo not shown) [Example 63, 2-(1-(6-(trifluoromethyl)pyridin-2-yl)-1H-indazol-6-yl)-5,6,7,8-tetrahydroquinolin-8-amine]
100 to 1000 nM | N#CCCCNC(=O)c1cccc(-n2ncc3ccc(-c4cncc(N)c4)cc32)n1 [Example 71, 6-(6-(5-aminopyridin-3-yl)-1H-indazol-1-yl)-N-(3-cyanopropyl)picolinamide]
1000 to 10000 nM | N#Cc1cccc(-c2ncc3ccc(-c4cncc(N)c4)cn23)c1 [Example 75, 3-(6-(5-aminopyridin-3-yl)imidazo[1,5-a]pyridin-3-yl)benzonitrile]
< 100 nM | N#Cc1cccc(-c2ncc3ccc(-c4cncc(N)c4)cn23)n1 [Example 76, 6-(6-(5-aminopyridin-3-yl)imidazo[1,5-a]pyridin-3-yl)picolinonitrile]
< 100 nM | Nc1cncc(-c2ccc3cnc(-c4cccc(C(F)(F)F)n4)n3c2)c1 [Example 78, 5-(3-(6-(trifluoromethyl)pyridin-2-yl)imidazo[1,5-a]pyridin-6-yl)pyridin-3-amine]
< 100 nM | CC(N)c1cccc(-c2ccc3cnc(-c4cccc(C(F)(F)F)n4)n3c2)n1 (stereo not shown) [Example 79, 1-(6-(3-(6-(trifluoromethyl)pyridin-2-yl)imidazo[1,5-a]pyridin-6-yl)pyridin-2-yl)ethanamine]
< 100 nM | NCc1cc(N)cc(-c2ccc3cnn(-c4cccc(C(F)(F)F)n4)c3c2)n1 [Example 80, 2-(aminomethyl)-6-(1-(6-(trifluoromethyl)pyridin-2-yl)-1H-indazol-6-yl)pyridin-4-amine]
< 100 nM | Nc1cc(C(=O)O)cc(-c2ccc3cnn(-c4cccc(C(F)(F)F)n4)c3c2)c1 [Example 85, 3-amino-5-(1-(6-(trifluoromethyl)pyridin-2-yl)-1H-indazol-6-yl)benzoic Acid]
< 100 nM | NCCNC(=O)c1cc(N)cc(-c2ccc3cnn(-c4cccc(C(F)(F)F)n4)c3c2)c1 [Example 88, 3-amino-N-(2-aminoethyl)-5-(1-(6-(trifluoromethyl)pyridin-2-yl)-1H-indazol-6-yl)benzamide]
< 100 nM | CC(N)c1cccc(-c2ccc3cnn(-c4cccc(C(F)(F)F)n4)c3c2)c1 (stereo not shown) [Example 89, 1-(3-(1-(6-(trifluoromethyl)pyridin-2-yl)-1H-indazol-6-yl)phenyl)ethanamine]
